In patent US6949571B2, “1,2-dihydropyridine compounds, process for preparation of the same and use thereof” (Eisai Co., Ltd., priority 2000, dated 2005):

The compounds below were run on AMPA receptor. Conditions: Table 3; primary culture of rat embryo cerebral cortex nerve cells, 2 μM AMPA, 1 μM MK-801.
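Note: primary rat embryonic cortical neurons grown on an astrocyte layer in 96-well plates, used after at least 8 to 10 days in culture, Fura2-AM fluorescence ratio at 340/380 nm excitation.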

SMILES	IC50 [nM]
N#Cc1ccccc1-c1cc(-c2ccccn2)cn(COCc2ccccc2)c1=O [Example 316, 1-Benzyloxymethyl-3-(2-cyanophenyl)-5-(2-pyridyl)-1,2-dihydropyridin-2-one]	2100
N#Cc1ccccc1-c1cc(-c2ccccn2)cn(CC2CCCC2)c1=O [Example 317, 3-(2-Cyanophenyl)-1-cyclopentylmethyl-5-(2-pyridyl)-1,2-dihydropyridin-2-one]	600
CC(C)(C)OC(=O)N1CCC(Cn2cc(-c3ccccn3)cc(-c3ccccc3C#N)c2=O)CC1 [Example 318, 1-[1-(tert-butoxycarbonyl)piperidin-4-yl]methyl-3-(2-cyanophenyl)-5-(2-pyridyl)-1,2-dihydropyridin-2-one]	3100
N#Cc1ccccc1-c1cc(-c2ccccn2)cn(CC2CCN(C(=O)OCc3ccccc3)CC2)c1=O [Example 319, 1-[1-(Benzyloxycarbonyl)piperidin-4-yl]methyl-3-(2-cyanophenyl)-5-(2-pyridyl)-1,2-dihydropyridin-2-one]	2000
O=c1c(-n2cccc2)cc(-c2ccccn2)cn1-c1ccccc1 [Example 320, 3-(Pyrrol-1-yl)-5-(2-pyridyl)-1-phenyl-1,2-dihydropyridin-2-one]	2300
N#Cc1ccccc1Nc1cc(-c2ccccn2)cn(-c2ccccc2)c1=O [Example 321, 3-(2-Cyanophenylamino)-5-(2-pyridyl)-1-phenyl-1,2-dihydropyridin-2-one]	4000
O=c1c(-n2ccc3ccccc32)cc(-c2ccccn2)cn1-c1ccccc1 [Example 326, 3-(Indol-1-yl)-5-(2-pyridyl)-1-phenyl-1,2-dihydropyridin-2-one]	900
Cc1ccc(-c2ccccc2)n1-c1cc(-c2ccccn2)cn(-c2ccccc2)c1=O [Example 327, 3-(2-Methyl-5-phenylpyrrol-1-yl)-5-(2-pyridyl)-1-phenyl-1,2-dihydropyridin-2-one]	8000
N#Cc1ccccc1-c1cc(-c2ccccn2)cn(-c2cccc(OC3CCNCC3)c2)c1=O [Example 330, 3-(2-Cyanophenyl)-1-[3-(4-piperidyloxy)]phenyl-5-(2-pyridyl)-1,2-dihydropyridin-2-one]	400
CC(=O)N1CCC(Oc2cccc(-n3cc(-c4ccccn4)cc(-c4ccccc4C#N)c3=O)c2)CC1 [Example 333, 1-[3-(N-acetylpiperidin-4-yl-oxy)phenyl]-3-(2-cyanophenyl)-5-(2-pyridyl)-1,2-dihydropyridin-2-one]	300
N#Cc1ccccc1-c1cc(-c2ccccn2)cn(-c2cccc(OC3CCN(C(=O)c4ccccc4)CC3)c2)c1=O [Example 334, 1-[3-(N-benzoylpiperidin-4-yl-oxy)phenyl]-3-(2-cyanophenyl)-5-(2-pyridyl)-1,2-dihydropyridin-2-one]	600
N#Cc1ccccc1-c1cc(-c2ccccn2)cn(-c2cccc(OC3CCN(S(=O)(=O)c4ccccc4)CC3)c2)c1=O [Example 337, 1-{3-[1-(Benzenesulfonyl)piperidin-4-yl-oxy]phenyl}-3-(2-cyanophenyl)-5-(2-pyridyl)-1,2-dihydropyridin-2-one]	700
CS(=O)(=O)N1CCC(Oc2cccc(-n3cc(-c4ccccn4)cc(-c4ccccc4C#N)c3=O)c2)CC1 [Example 338, 3-(2-Cyanophenyl)-1-{3-[1-(methanesulfonyl)piperidin-4-yl-oxy]phenyl}-5-(2-pyridyl)-1,2-dihydropyridin-2-one]	400
CN1CCC(Oc2cccc(-n3cc(-c4ccccn4)cc(-c4ccccc4C#N)c3=O)c2)CC1 [Example 341, 1-[3-(N-methylpiperidin-4-yl-oxy)phenyl]-3-(2-cyanophenyl)-5-(2-pyridyl)-1,2-dihydropyridin-2-one]	200
O=C(NC1CCCCC1)c1cc(-c2ccccn2)cn(-c2ccccc2)c1=O [Example 344, 3-Cyclohexylaminocarbonyl-5-(2-pyridyl)-1-phenyl-1,2-dihydropyridin-2-one]	4700
O=C(NC12CC3CC(CC(C3)C1)C2)c1cc(-c2ccccn2)cn(-c2ccccc2)c1=O [Example 346, 3-(1-Adamantylaminocarbonyl)-5-(2-pyridyl)-1-phenyl-1,2-dihydropyridin-2-one]	3700
Cc1ccc2[nH]c(-c3cc(-c4ccccc4C#N)c(=O)n(-c4ccccc4)c3)nc2c1 [Example 351, 3-(2-Cyanophenyl)-5-(5-methyl-1H-benzimidazol-2-yl)-1-phenyl-1,2-dihydropyridin-2-one]	3300
Cc1cccc2[nH]c(-c3cc(-c4ccccc4C#N)c(=O)n(-c4ccccc4)c3)nc12 [Example 352, 3-(2-Cyanophenyl)-5-(4-methyl-1H-benzimidazol-2-yl)-1-phenyl-1,2-dihydropyridin-2-one]	1600
O=c1c(-c2nc3cc(Cl)c(Cl)cc3[nH]2)cc(-c2ccccn2)cn1-c1ccccc1 [Example 354, 3-(5.6-Dichloro-1H-benzimidazol-2-yl)-5-(2-pyridyl)-1-phenyl-1,2-dihydropyridin-2-one]	1500
O=c1c(-c2nc3ccc(Cl)cc3[nH]2)cc(-c2ccccn2)cn1-c1ccccc1 [Example 355, 3-(6-Chloro-1H-benzimidazol-2-yl)-5-(2-pyridyl)-1-phenyl-1,2-dihydropyridin-2-one]	200

SMILES	IC50 [nM]
O=c1c(-c2nc3ccccc3n2-c2ccncc2)cc(-c2ccccn2)cn1-c1ccccc1 [Example 356, 3-[1-(Pyridin-4-yl)benzimidazol-2-yl]-5-(2-pyridyl)-1-phenyl-1,2-dihydropyridin-2-one]	2100
N#Cc1ccccc1-c1cc(-c2nc3cccc4c3n2CCC4)cn(-c2ccccc2)c1=O [Example 358, 3-(2-Cyanophenyl)-5-(5,6-dihydro-4H-imidazo[4,5,1-i,j]quinolin-2-yl)-1-phenyl-1,2-dihydropyridin-2-one]	1400
O=c1c(-c2nc3cccc4c3n2CCC4)cc(-c2ccccn2)cn1-c1ccccc1 [Example 359, 3-(5,6-Dihydro-4H-imidazo[4,5,1-i,j]quinolin-2-yl)-5-(2-pyridyl)-1-phenyl-1,2-dihydropyridin-2-one]	2300
O=c1c(-c2nc3ccccc3n2-c2ccccc2)cc(-c2ccccn2)cn1-c1ccccc1 [Example 360, 3-(1-Phenylbenzimidazol-2-yl)-5-(2-pyridyl)-1-phenyl-1,2-dihydropyridin-2-one]	3100
N#Cc1ccccc1-c1cc(-c2nc3cnccc3[nH]2)cn(-c2ccccc2)c1=O [Example 362, 3-(2-Cyanophenyl)-5-(1H-imidazo[4,5-c]pyridin-2-yl)-1-phenyl-1,2-dihydropyridin-2-one]	3700
N#Cc1ccccc1-c1cc(-c2nc3ccccc3n2C2CCN(Cc3ccccc3)CC2)cn(-c2ccccc2)c1=O [Example 365, 3-(2-Cyanophenyl)-5-[1-(1-benzylpiperidin-4-yl)benzimidazol-2-yl]-1-phenyl-1,2-dihydropyridin-2-one]	2700
O=c1c(-c2nc3cnccc3[nH]2)cc(-c2ccccn2)cn1-c1ccccc1 [Example 367, 3-(1H-Imidazo[4,5-c]pyridin-2-yl)-5-(2-pyridyl)-1-phenyl-1,2-dihydropyridin-2-one]	600
O=c1c(-c2nc3ccccc3s2)cc(-c2ccccn2)cn1-c1ccccc1 [Example 371, 3-(2-Benzothiazolyl)-5-(2-pyridyl)-1-phenyl-1,2-dihydropyridin-2-one]	600
N#Cc1ccccc1-c1cc(-c2ccccn2)cn(C2CCCN(Cc3ccccc3)C2)c1=O (stereo not shown) [Example 379-B, 3-(2-Cyanophenyl)-5-(2-pyridyl)-1-(N-benzylpiperidin-3-yl)-1,2-dihydropyridin-2-one]	6400
Cc1ccc(-n2cc(-c3ccccn3)cc(-c3ccccc3C#N)c2=O)cc1[N+](=O)[O-] [Example 381, 3-(2-Cyanophenyl)-5-(2-pyridyl)-1-(2-nitrotoluen-4-yl)-1,2-dihydropyridin-2-one]	400
O=c1c(S(=O)(=O)c2ccc(Cl)cc2)cc(-c2ccccn2)cn1-c1ccccc1 [Example 382-B, 3-(4-Chlorobenzenesulfonyl)-5-(2-pyridyl)-1-phenyl-1,2-dihydropyridin-2-one]	2300
O=c1c(-c2ccccc2Cl)cc(Sc2ccc(Cl)cc2)cn1-c1cccnc1 [Example 385, 3-(2-Chlorophenyl)-5-(4-chlorophenylthio)-1-(3-pyridyl)-1,2-dihydropyridin-2-one]	1100
N#Cc1ccccc1-c1cc(-c2nc3ccccc3[nH]2)cn(-c2ccccc2)c1=O [Example 386, 3-(2-Cyanophenyl)-5-(1H-benzimidazol-2-yl)-1-phenyl-1,2-dihydropyridin-2-one]	3500
O=c1c(C2C3CC4CC(C3)CC2C4)cc(-c2ccccn2)cn1-c1ccccc1 (stereo not shown) [Example 387, 3-(2-Adamantyl)-5-(2-pyridyl)-1-phenyl-1,2-dihydropyridin-2-one]	7000
Cn1cccc2nc(-c3cc(-c4ccccc4C#N)c(=O)n(-c4ccccc4)c3)nc1-2 [Example 388, 3-(2-Cyanophenyl)-5-(4-methyl-imidazo[4.5-b]pyridin-2-yl)-1-phenyl-1,2-dihydropyridin-2-one]	2900
O=c1c(-c2nc(-c3ccccc3)no2)cc(-c2ccccn2)cn1-c1ccccc1 [Example 390, 3-(3-Phenyl-1,2,4-oxadiazol-5-yl)-1-phenyl-5-(2-pyridyl)-1,2-dihydropyridin-2-one]	1000
N#Cc1sccc1-c1cc(-c2ccccn2)cn(-c2ccccc2)c1=O [Example 391, 3-(2-Cyanothiophen-3-yl)-5-(2-pyridyl)-1-phenyl-1,2-dihydropyridin-2-one]	100
O=c1c(-c2ccccc2-c2cnco2)cc(-c2ccccn2)cn1-c1ccccc1 [Example 392, 3-[2-(5-oxazolyl)phenyl]-1-phenyl-5-(2-pyridyl)-1,2-dihydropyridin-2-one]	100
O=c1c(-c2ccsc2-c2cnco2)cc(-c2ccccn2)cn1-c1ccccc1 [Example 393, 3-[2-(5-Oxazolyl)thiophen-3-yl]-1-phenyl-5-(2-pyridyl)-1,2-dihydropyridin-2-one]	300
N#Cc1ccccc1-c1cc(C(=O)c2ccccn2)cn(-c2ccccc2)c1=O [Example 394, 3-(2-Cyanophenyl)-5-(2-pyridinecarbonyl)-1-phenyl-1,2-dihydropyridin-2-one]	1400
